Results taken from ChEMBL document CHEMBL4819004, “Discovery of selective CDK9 degraders with enhancing antiproliferative activity through PROTAC conversion” (Eur J Med Chem, 2021).

Experiments:
CDK9/cyclin T1 = CDK9/cyclin T1 (Homo sapiens, UniProt P50750); test: Inhibition of CDK9/cyclin T (unknown origin) using YSPTSPSYSPTSPSYSPTSPKKK or histone H1 as substrate incubated for 2 hrs in presence of [gamma-33P]ATP by radioactive filter binding assay; format: protein-complex assay
MV4-11 [1] = test: Antiproliferative activity against human MV4-11 cells incubated for 72 hrs by MTT assay; format: functional, cell-based; conditions: MV4-11, 72 h
MOLM-13 = test: Antiproliferative activity against human MOLM-13 cells incubated for 72 hrs by MTT assay; format: functional, cell-based; conditions: MOLM-13, 72 h
HCT-116 = test: Antiproliferative activity against human HCT-116 cells incubated for 72 hrs by MTT assay; format: functional, cell-based; conditions: HCT-116, 72 h
B16 = test: Antiproliferative activity against mouse B16 cells incubated for 72 hrs by MTT assay; format: functional, cell-based; conditions: B16, 72 h
A549 = test: Antiproliferative activity against human A549 cells incubated for 72 hrs by MTT assay; format: functional, cell-based; conditions: A549, 72 h
HepG2 = test: Antiproliferative activity against human HepG2 cells incubated for 72 hrs by MTT assay; format: functional, cell-based; conditions: HepG2, 72 h
MCF7 = test: Antiproliferative activity against human MCF7 cells incubated for 72 hrs by MTT assay; format: functional, cell-based; conditions: MCF7, 72 h
[2] = target: T1, Protein cereblon/Cyclin-dependent kinase 9 (Homo sapiens, UniProt P50750+Q96SW2); test: Protac activity at CRBN/CDK9 in human MV4-11 cells assessed as CDK9 degradation rate at 500 nM incubated for 6 hrs by Western blot assay relative to control; format: cell-based
Target sequence in this assay (P50750 whole entry, looked up): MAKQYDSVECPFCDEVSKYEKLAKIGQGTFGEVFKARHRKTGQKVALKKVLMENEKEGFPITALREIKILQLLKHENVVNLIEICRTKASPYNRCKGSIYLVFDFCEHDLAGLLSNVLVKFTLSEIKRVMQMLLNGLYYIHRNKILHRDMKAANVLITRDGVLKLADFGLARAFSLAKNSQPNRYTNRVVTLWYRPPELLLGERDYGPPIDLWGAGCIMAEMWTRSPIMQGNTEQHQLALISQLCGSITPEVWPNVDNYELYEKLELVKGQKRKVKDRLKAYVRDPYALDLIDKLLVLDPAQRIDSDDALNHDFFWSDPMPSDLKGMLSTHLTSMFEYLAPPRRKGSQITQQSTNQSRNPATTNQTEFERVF
Target sequence in this assay (Q96SW2 whole entry, looked up): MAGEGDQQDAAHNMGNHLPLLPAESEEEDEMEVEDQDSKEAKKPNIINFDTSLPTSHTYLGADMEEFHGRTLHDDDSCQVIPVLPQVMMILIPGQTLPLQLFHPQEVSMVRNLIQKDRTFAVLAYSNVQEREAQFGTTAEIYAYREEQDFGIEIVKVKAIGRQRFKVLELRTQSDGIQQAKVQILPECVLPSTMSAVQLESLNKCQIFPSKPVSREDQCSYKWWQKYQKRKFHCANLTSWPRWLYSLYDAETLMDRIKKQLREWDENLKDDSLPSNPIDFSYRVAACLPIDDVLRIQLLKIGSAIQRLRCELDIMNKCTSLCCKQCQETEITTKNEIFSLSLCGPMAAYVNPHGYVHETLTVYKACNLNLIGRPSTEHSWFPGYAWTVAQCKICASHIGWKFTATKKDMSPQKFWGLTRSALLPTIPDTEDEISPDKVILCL

[3] = target: T1, Protein cereblon/Cyclin-dependent kinase 9; test: Protac activity at CRBN/CDK9 in human MOLM-13 cells assessed as CDK9 degradation rate at 500 nM incubated for 6 hrs by Western blot assay relative to control; format: cell-based
Target sequence in this assay (P50750 whole entry, looked up): as the sequence (P50750 whole entry, looked up) above
Target sequence in this assay (Q96SW2 whole entry, looked up): as the sequence (Q96SW2 whole entry, looked up) above

[4] = target: T1, Protein cereblon/Cyclin-dependent kinase 9; test: Protac activity at CRBN/CDK9 in human MV4-11 cells assessed as induction of CDK9 degradation incubated for 6 hrs by Western blot assay; format: cell-based
Target sequence in this assay (P50750 whole entry): as the sequence (P50750 whole entry, looked up) above
Target sequence in this assay (Q96SW2 whole entry): as the sequence (Q96SW2 whole entry, looked up) above

MV4-11 [5] = test: Induction of apoptosis in human MV4-11 cells assessed as total apoptotic cells at 500 nM after 6 hrs by AnnexinV-FITC/propidium iodide staining based flow cytometry (reference value: 9.75 %); format: functional
MV4-11 [6] = test: Induction of apoptosis in human MV4-11 cells assessed as viable cells at 500 nM after 6 hrs by AnnexinV-FITC/propidium iodide staining based flow cytometry (reference value: 90.1 %); format: functional; conditions: read-out: Activity
MV4-11 [7] = test: Induction of apoptosis in human MV4-11 cells assessed as early apoptotic cells at 500 nM after 6 hrs by AnnexinV-FITC/propidium iodide staining based flow cytometry (reference value: 5.36 %); format: functional
MV4-11 [8] = test: Induction of apoptosis in human MV4-11 cells assessed as late apoptotic cells at 500 nM after 6 hrs by AnnexinV-FITC/propidium iodide staining based flow cytometry (reference value: 4.29%); format: functional
MV4-11 [9] = test: Induction of apoptosis in human MV4-11 cells assessed as necrotic cells at 500 nM after 6 hrs by AnnexinV-FITC/propidium iodide staining based flow cytometry (reference value: 0.16 %); format: functional

Sequence of CDK9/cyclin T1 (O60563 whole entry): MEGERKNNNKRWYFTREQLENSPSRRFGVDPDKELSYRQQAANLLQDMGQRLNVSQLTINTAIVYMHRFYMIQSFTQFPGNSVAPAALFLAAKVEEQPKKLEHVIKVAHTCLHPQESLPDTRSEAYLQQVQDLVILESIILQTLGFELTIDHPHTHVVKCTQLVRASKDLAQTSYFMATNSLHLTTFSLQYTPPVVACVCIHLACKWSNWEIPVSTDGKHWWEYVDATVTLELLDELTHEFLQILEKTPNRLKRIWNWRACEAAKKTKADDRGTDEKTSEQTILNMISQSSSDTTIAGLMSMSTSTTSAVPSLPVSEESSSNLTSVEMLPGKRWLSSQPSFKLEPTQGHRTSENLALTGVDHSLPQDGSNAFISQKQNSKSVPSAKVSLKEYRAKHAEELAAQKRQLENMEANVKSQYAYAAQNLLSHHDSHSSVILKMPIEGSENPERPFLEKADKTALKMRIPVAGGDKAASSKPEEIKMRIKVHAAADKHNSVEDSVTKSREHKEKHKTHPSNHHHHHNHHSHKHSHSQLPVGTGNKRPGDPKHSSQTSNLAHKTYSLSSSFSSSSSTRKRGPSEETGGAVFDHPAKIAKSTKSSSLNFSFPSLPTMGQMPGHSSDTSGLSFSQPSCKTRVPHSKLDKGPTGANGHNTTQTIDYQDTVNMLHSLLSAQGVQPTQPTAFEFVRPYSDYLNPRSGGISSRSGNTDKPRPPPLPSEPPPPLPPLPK
Sequence of CDK9/cyclin T1 (P50750 whole entry): as the sequence (P50750 whole entry, looked up) above

| Structure (SMILES) | IC50 (CDK9/cyclin T1) [µM] | IC50 (MV4-11 [1]) [µM] | IC50 (MOLM-13) [µM] | IC50 (HCT-116) [µM] | IC50 (B16) [µM] | IC50 (A549) [µM] | IC50 (HepG2) [µM] | IC50 (MCF7) [µM] | Activity [2] [%] | Activity [3] [%] | DC50 [4] [µM] | Activity (MV4-11 [5]) [%] | viability at 0.5 µM (MV4-11 [6]) [%] | Activity (MV4-11 [7]) [%] | Activity (MV4-11 [8]) [%] | Activity (MV4-11 [9]) [%] |
| --- | --- | --- | --- | --- | --- | --- | --- | --- | --- | --- | --- | --- | --- | --- | --- | --- |
| COc1cc(F)ccc1-c1ncnc(Nc2cccc(CS(C)(=O)=NC(=O)CCc3cn(CCCCCC(=O)NCCNc4cccc5c4C(=O)N(C4CCC(=O)NC4=O)C5=O)nn3)c2)n1 (configuration not stated) | 0.0114 | 0.72 | 0.99 | 16.4 | 16.2 | 8.35 | 10.3 | 24.5 | 88.8 | 66 | – | – | – | – | – | – |
| COc1cc(F)ccc1-c1ncnc(Nc2cccc(CS(C)(=O)=NC(=O)COCCOCCOCC(=O)NCCCCCNc3cccc4c3C(=O)N(C3CCC(=O)NC3=O)C4=O)c2)n1 (configuration not stated) | 0.00935 | 0.25 | 0.48 | 3.1 | 3.35 | 6.15 | 8.51 | 10.2 | 100 | 99 | – | – | – | – | – | – |
| COc1cc(F)ccc1-c1ncnc(Nc2cccc(CS(C)(=O)=NC(=O)CCCC(=O)NCCNc3cccc4c3C(=O)N(C3CCC(=O)NC3=O)C4=O)c2)n1 (configuration not stated) | 0.0127 | 0.46 | 2.8 | 20.6 | 22.1 | 35.6 | 19.1 | 24.8 | 100 | 99 | 0.0273 | – | – | – | – | – |
| COc1cc(F)ccc1-c1ncnc(Nc2cccc(CS(C)(=O)=NC(=O)CCCCCC(=O)NCCNc3cccc4c3C(=O)N(C3CCC(=O)NC3=O)C4=O)c2)n1 (configuration not stated) | 0.0144 | 0.18 | 1.11 | 8.04 | 6.68 | 1.44 | 16.4 | 5.34 | 88.8 | 66 | – | – | – | – | – | – |
| COc1cc(N2CCN(CCCCCCCC(=O)NCCNc3cccc4c3C(=O)N(C3CCC(=O)NC3=O)C4=O)CC2)ccc1-c1ncnc(Nc2cccc(CS(C)(=N)=O)c2)n1 (configuration not stated) | 6.87 | 4.9 | > 50 | > 50 | > 50 | > 50 | > 50 | > 50 | 33 | 23 | – | – | – | – | – | – |
| COc1cc(N2CCN(CCCCCCC(=O)NCCNc3cccc4c3C(=O)N(C3CCC(=O)NC3=O)C4=O)CC2)ccc1-c1ncnc(Nc2cccc(CS(C)(=N)=O)c2)n1 (configuration not stated) | 6.56 | 3.8 | > 50 | > 50 | > 50 | > 50 | > 50 | > 50 | 52 | 7 | – | – | – | – | – | – |
| COc1cc(F)ccc1-c1ncnc(Nc2cccc(CS(C)(=O)=NC(=O)CCc3cn(CCCCCCCC(=O)NCCNc4cccc5c4C(=O)N(C4CCC(=O)NC4=O)C5=O)nn3)c2)n1 (configuration not stated) | 0.00925 | 0.18 | 0.2 | 5.51 | 3.07 | 4.14 | 4.65 | 11.4 | 100 | 100 | 0.0103 | – | – | – | – | – |
| COc1cc(F)ccc1-c1ncnc(Nc2cccc(CS(C)(=O)=NC(=O)CCC(=O)CCC(=O)NCCNc3cccc4c3C(=O)N(C3CCC(=O)NC3=O)C4=O)c2)n1 (configuration not stated) | 0.0102 | 0.07 | 0.13 | 3 | 1.75 | 3.21 | 3.36 | 5.18 | 98 | 98 | – | – | – | – | – | – |
| COc1cc(F)ccc1-c1ncnc(Nc2cccc(CS(C)(=O)=NC(=O)CCCCCCCCCC(=O)NCCNc3cccc4c3C(=O)N(C3CCC(=O)NC3=O)C4=O)c2)n1 (configuration not stated) | 0.0107 | 0.039 | 0.38 | 3.23 | 1.72 | 2.28 | 8.61 | 4.79 | 100 | 99 | 0.0312 | – | – | – | – | – |
| COc1cc(F)ccc1-c1ncnc(Nc2cccc(C[S@](C)(=N)=O)c2)n1 [ATUVECICLIB] | – | 0.56 | 0.2 | 2.94 | 1.47 | 3.29 | 2.7 | 5.52 | 0 | 0 | – | 21.1 | 78.6 | 4.99 | 15.7 | 0.26 |
| COc1cc(F)ccc1-c1ncnc(Nc2cccc(CS(C)(=O)=NC(=O)CCCCCC(=O)NCCCCCNc3cccc4c3C(=O)N(C3CCC(=O)NC3=O)C4=O)c2)n1 (configuration not stated) | 0.0139 | 0.45 | 0.47 | 1.42 | 3.5 | 11.9 | 4.15 | 8.02 | 95 | 65 | – | – | – | – | – | – |
| COc1cc(N2CCN(CCCCCC(=O)NCCNc3cccc4c3C(=O)N(C3CCC(=O)NC3=O)C4=O)CC2)ccc1-c1ncnc(Nc2cccc(CS(C)(=N)=O)c2)n1 (configuration not stated) | 8.11 | 7.71 | > 50 | > 50 | > 50 | > 50 | > 50 | > 50 | 62 | 24 | – | – | – | – | – | – |
| COc1cc(N2CCN(CCCCCCCCCC(=O)NCCNc3cccc4c3C(=O)N(C3CCC(=O)NC3=O)C4=O)CC2)ccc1-c1ncnc(Nc2cccc(CS(C)(=N)=O)c2)n1 (configuration not stated) | 6.34 | 2.6 | > 50 | > 50 | > 50 | > 50 | > 50 | > 50 | 44 | 49 | – | – | – | – | – | – |
| COc1cc(F)ccc1-c1ncnc(Nc2cccc(CS(C)(=O)=NC(=O)CCC(=O)CCC(=O)NCCCCCNc3cccc4c3C(=O)N(C3CCC(=O)NC3=O)C4=O)c2)n1 (configuration not stated) | 0.0857 | 1.1 | 0.74 | 4.77 | 8.64 | 11.1 | 8.58 | 15.5 | 67 | 45 | – | – | – | – | – | – |
| COc1cc(F)ccc1-c1ncnc(Nc2cccc(CS(C)(=O)=NC(=O)COCCOCCOCC(=O)NCCNc3cccc4c3C(=O)N(C3CCC(=O)NC3=O)C4=O)c2)n1 (configuration not stated) | 0.0149 | 0.27 | 0.65 | 12.2 | 18.4 | 13.2 | 17.5 | 20.8 | 51 | 0 | – | – | – | – | – | – |
